ChEMBL document CHEMBL5113473, “Synthesis and biological evaluation of new 2‑substituted‑4‑amino-quinolines and -quinazoline as potential antifungal agents” (Bioorg Med Chem Lett, 2022)
In brackets after ≈: the same amount, converted by molar mass. Activity calls are given as the source filed them. No cut-off for these calls is given here.

Columns and labels:
[1] = system: Candida tropicalis; assay: Antifungal activity against Candida tropicalis ATCC 1369 assessed as reduction in fungal growth by CLSI protocol based broth microdilution method; type: functional
[2] = system: Cryptococcus neoformans; assay: Antifungal activity against Cryptococcus neoformans ATCC 32045 assessed as reduction in fungal growth by CLSI protocol based broth microdilution method; type: functional
[3] = system: Aspergillus fumigatus; assay: Antifungal activity against Aspergillus fumigatus AS 3.3913 assessed as reduction in fungal growth by CLSI protocol based broth microdilution method; type: functional
[4] = system: Candida albicans; assay: Antifungal activity against Candida albicans ATCC 10231 assessed as reduction in fungal growth by CLSI protocol based broth microdilution method; type: functional
[5] = system: Candida albicans; assay: Fungistatic activity against Candida albicans ATCC 10231 assessed as reduction in fungal growth at 2 to 4 times MIC incubated for 36 hrs by Time kill assay; type: functional, organism-based; conditions: DDE = dose-dependent effect
[6] = system: Candida albicans; assay: Antifungal activity against Candida albicans ATCC 10231 assessed as resistance development by measuring increase in MIC at 0.5 ug/ml after 20 passages by CLSI protocol based broth microdilution method; type: functional; conditions: dose 0.5 µg/ml
[7] = system: Cell membrane; assay: Induction of cell membrane damage in Candida albicans ATCC 10231 at 2 to 4 times MIC by propidium iodide staining based fluorescence assay
[8] = Cytotoxicity against human HUVEC cells assessed as reduction in cell viability by CCK-8 assay; type: toxicity, cell-based
[9] = Selectivity index, ration of CC50 for cytotoxicity against human HUVEC cells to MIC for antifungal activity against Candida albicans ATCC 10231; type: toxicity, cell-based; conditions: read-out: Selectivity Index
[10] = system: Candida albicans; assay: Fungistatic activity against Candida albicans ATCC 10231 assessed as reduction in fungal growth at 4 times MIC incubated for 12 hrs by Time kill assay; type: functional, organism-based
[11] = Metabolic stability in mouse plasma assessed as parent compound remaining at 2 to 8 times; type: ADME, cell-free
[12] = system: Candida albicans; assay: Antibiofilm activity against Candida albicans ATCC 10231 assessed as inhibition of biofilm viability by XTT reduction assay; type: functional, organism-based

SMILES: Cc1ccc(Nc2cc(C3CC3)nc3ccccc23)cc1.Cl
- MIC [1]: 128 µg/mL
- MIC [2]: 32 µg/mL
- MIC [3]: 512 µg/mL
- MIC [4]: 128 µg/mL

SMILES: Cc1ccc(Nc2cc(-c3cccc(Br)c3)nc3ccccc23)cc1.Cl
- MIC [1]: > 512 µg/mL
- MIC [2]: > 512 µg/mL
- MIC [3]: > 512 µg/mL
- MIC [4]: > 512 µg/mL

SMILES: COc1ccc(-c2cc(Nc3ccc(C)cc3)c3ccccc3n2)cc1.Cl
- MIC [1]: 16 µg/mL
- MIC [2]: 8 µg/mL
- MIC [3]: 8 µg/mL
- MIC [4]: 16 µg/mL

SMILES: CCN(c1ccc(C)cc1)c1cc(-c2ccc(C)cc2)nc2ccccc12
- MIC [1]: > 512 µg/mL
- MIC [2]: 128 µg/mL (≈ 363 µM)
- MIC [3]: 512 µg/mL (≈ 1450 µM)
- MIC [4]: > 512 µg/mL

SMILES: C[C@@H]1[C@H](O)[C@@H](C)/C=C/C=C/C=C/C=C/C=C/C=C/C=C/[C@H](O[C@@H]2O[C@H](C)[C@@H](O)[C@H](N)[C@@H]2O)C[C@@H]2O[C@](O)(C[C@@H](O)C[C@@H](O)[C@H](O)CC[C@@H](O)C[C@@H](O)CC(=O)O[C@H]1C)C[C@H](O)[C@H]2C(=O)O [AMPHOTERICIN B]
- MIC [1]: 4 µg/mL (≈ 4.33 µM)
- MIC [2]: 1 µg/mL (≈ 1.08 µM)
- MIC [3]: > 512 µg/mL
- MIC [4]: 1 µg/mL (≈ 1.08 µM)
- Activity [5]: Dde
- MIC [6]: 128 µg/mL (≈ 139 µM)
- Activity [7]: Active
- CC50 [8]: 4.92 µM
- selectivity ratio [9]: 4.55

SMILES: CCN(c1ccc(C)cc1)c1cc(-c2cccc(C)c2)nc2ccccc12
- MIC [1]: 512 µg/mL (≈ 1450 µM)
- MIC [2]: 64 µg/mL (≈ 182 µM)
- MIC [3]: 512 µg/mL (≈ 1450 µM)
- MIC [4]: 512 µg/mL (≈ 1450 µM)

SMILES: Cc1ccc(Nc2cc(-c3ccccc3Br)nc3ccccc23)cc1.Cl
- MIC [1]: 128 µg/mL
- MIC [2]: 8 µg/mL
- MIC [3]: 64 µg/mL
- MIC [4]: > 512 µg/mL

SMILES: COc1cccc(-c2cc(Nc3ccc(C)cc3)c3ccccc3n2)c1.Cl
- MIC [1]: 16 µg/mL
- MIC [2]: 16 µg/mL
- MIC [3]: 32 µg/mL
- MIC [4]: 8 µg/mL

SMILES: Cc1ccc(Nc2cc(-c3cccc(F)c3)nc3ccccc23)cc1.Cl
- MIC [1]: > 512 µg/mL
- MIC [2]: > 512 µg/mL
- MIC [3]: > 512 µg/mL
- MIC [4]: > 512 µg/mL

SMILES: Cc1ccc(Nc2cc(-c3ccccc3F)nc3ccccc23)cc1.Cl
- MIC [1]: > 512 µg/mL
- MIC [2]: > 512 µg/mL
- MIC [3]: > 512 µg/mL
- MIC [4]: > 512 µg/mL

SMILES: Cc1ccc(Nc2cc(-c3ccccc3C(F)(F)F)nc3ccccc23)cc1.Cl
- MIC [1]: 256 µg/mL
- MIC [2]: 4 µg/mL
- MIC [3]: 128 µg/mL
- MIC [4]: > 512 µg/mL

SMILES: Cc1ccc(Nc2cc(-c3cccnc3)nc3ccccc23)cc1.Cl
- MIC [1]: 256 µg/mL
- MIC [2]: > 512 µg/mL
- MIC [3]: > 512 µg/mL
- MIC [4]: 512 µg/mL

SMILES: Cc1ccc(Nc2ccnc3ccccc23)cc1.Cl
- MIC [1]: 512 µg/mL
- MIC [2]: 256 µg/mL
- MIC [3]: 128 µg/mL
- MIC [4]: 256 µg/mL

SMILES: Cc1ccc(Nc2nc(-c3ccccc3)nc3ccccc23)cc1.Cl
- MIC [1]: > 512 µg/mL
- MIC [2]: > 512 µg/mL
- MIC [3]: > 512 µg/mL
- MIC [4]: > 512 µg/mL

SMILES: Cc1ccc(Nc2cc(-c3ccc(C)cc3)nc3ccccc23)cc1.Cl
- MIC [1]: 16 µg/mL
- MIC [2]: 8 µg/mL
- MIC [3]: 4 µg/mL
- MIC [4]: 8 µg/mL
- Activity [5]: Dde
- Activity [10]: Active
- Stability [11]: 80%
- Activity [12]: Active
- CC50 [8]: 36 µM
- selectivity ratio [9]: 1.63

SMILES: Cc1ccc(Nc2cc(-c3ccc4ccccc4c3)nc3ccccc23)cc1.Cl
- MIC [1]: 256 µg/mL
- MIC [2]: 4 µg/mL
- MIC [3]: 64 µg/mL
- MIC [4]: 128 µg/mL

SMILES: Cc1ccc(Nc2cc(-c3ccc(F)cc3)nc3ccccc23)cc1.Cl
- MIC [1]: > 512 µg/mL
- MIC [2]: > 512 µg/mL
- MIC [3]: > 512 µg/mL
- MIC [4]: > 512 µg/mL

SMILES: Cc1ccc(Nc2cc(-c3ccccc3)nc3ccccc23)cc1.Cl
- MIC [1]: 32 µg/mL
- MIC [2]: 32 µg/mL
- MIC [3]: 64 µg/mL
- MIC [4]: 32 µg/mL

SMILES: Cc1ccc(Nc2cc(C)nc3ccccc23)cc1.Cl
- MIC [1]: 256 µg/mL
- MIC [2]: 256 µg/mL
- MIC [3]: 128 µg/mL
- MIC [4]: 256 µg/mL

SMILES: Cc1ccc(Nc2cc(C3CCCC3)nc3ccccc23)cc1.Cl
- MIC [1]: 32 µg/mL
- MIC [2]: 64 µg/mL
- MIC [3]: 16 µg/mL
- MIC [4]: 64 µg/mL

SMILES: CCN(c1ccc(C)cc1)c1cc(-c2ccccc2OC)nc2ccccc12
- MIC [1]: 256 µg/mL (≈ 695 µM)
- MIC [2]: 16 µg/mL (≈ 43.4 µM)
- MIC [3]: 256 µg/mL (≈ 695 µM)
- MIC [4]: > 512 µg/mL

SMILES: COc1ccccc1-c1cc(Nc2ccc(C)cc2)c2ccccc2n1.Cl
- MIC [1]: 32 µg/mL
- MIC [2]: 32 µg/mL
- MIC [3]: 8 µg/mL
- MIC [4]: 32 µg/mL

SMILES: Cc1ccc(Nc2cc(C3CCCCC3)nc3ccccc23)cc1.Cl
- MIC [1]: 16 µg/mL
- MIC [2]: 32 µg/mL
- MIC [3]: > 512 µg/mL
- MIC [4]: 16 µg/mL

SMILES: Cc1ccc(Nc2cc(C3CCC3)nc3ccccc23)cc1.Cl
- MIC [1]: 64 µg/mL
- MIC [2]: 64 µg/mL
- MIC [3]: 64 µg/mL
- MIC [4]: 128 µg/mL

SMILES: Cc1ccc(Nc2cc(-c3ccco3)nc3ccccc23)cc1.Cl
- MIC [1]: 16 µg/mL
- MIC [2]: 32 µg/mL
- MIC [3]: 128 µg/mL
- MIC [4]: 32 µg/mL

SMILES: Cc1ccc(Nc2cc(-c3ccccc3C)nc3ccccc23)cc1.Cl
- MIC [1]: 32 µg/mL
- MIC [2]: 32 µg/mL
- MIC [3]: 32 µg/mL
- MIC [4]: 16 µg/mL

SMILES: Cc1ccc(Nc2cc(-c3ccc(Br)cc3)nc3ccccc23)cc1.Cl
- MIC [1]: > 512 µg/mL
- MIC [2]: 512 µg/mL
- MIC [3]: > 512 µg/mL
- MIC [4]: > 512 µg/mL

SMILES: Cc1ccc(Nc2cc(-c3ccccc3Cl)nc3ccccc23)cc1.Cl
- MIC [1]: 64 µg/mL
- MIC [2]: 8 µg/mL
- MIC [3]: 512 µg/mL
- MIC [4]: > 512 µg/mL

SMILES: Cc1ccc(Nc2cc(-c3ccc(C(C)(C)C)cc3)nc3ccccc23)cc1.Cl
- MIC [1]: 32 µg/mL
- MIC [2]: 4 µg/mL
- MIC [3]: 2 µg/mL
- MIC [4]: 32 µg/mL

SMILES: Cc1ccc(Nc2cc(-c3ccc(Cl)cc3)nc3ccccc23)cc1.Cl
- MIC [1]: 128 µg/mL
- MIC [2]: 32 µg/mL
- MIC [3]: > 512 µg/mL
- MIC [4]: 64 µg/mL

SMILES: Cc1ccc(Nc2cc(-c3cccc(Cl)c3)nc3ccccc23)cc1.Cl
- MIC [1]: > 512 µg/mL
- MIC [2]: > 512 µg/mL
- MIC [3]: > 512 µg/mL
- MIC [4]: > 512 µg/mL

SMILES: Cc1ccc(Nc2cc(-c3ccc(C(F)(F)F)cc3)nc3ccccc23)cc1.Cl
- MIC [1]: > 512 µg/mL
- MIC [2]: 16 µg/mL
- MIC [3]: > 512 µg/mL
- MIC [4]: > 512 µg/mL

SMILES: Cc1ccc(Nc2cc(-c3cccs3)nc3ccccc23)cc1.Cl
- MIC [1]: 16 µg/mL
- MIC [2]: 4 µg/mL
- MIC [3]: 16 µg/mL
- MIC [4]: 8 µg/mL

SMILES: Cc1ccc(Nc2cc(-c3cccc(C)c3)nc3ccccc23)cc1.Cl
- MIC [1]: 32 µg/mL
- MIC [2]: 128 µg/mL
- MIC [3]: 128 µg/mL
- MIC [4]: 8 µg/mL

SMILES: Cc1ccc(Nc2cc(-c3cccc(C(F)(F)F)c3)nc3ccccc23)cc1.Cl
- MIC [1]: 512 µg/mL
- MIC [2]: 512 µg/mL
- MIC [3]: > 512 µg/mL
- MIC [4]: > 512 µg/mL
